The source of these data is ChEMBL document CHEMBL4609989, “Synthesis and antileishmanial activity of fluorinated rhodacyanine analogues: The 'fluorine-walk' analysis” (Bioorg Med Chem, 2020).

Series [1] has as its system Leishmania orientalis. Briefly: Antileishmanial activity against Leishmania orientalis MHOM/TH/2010/PCM2 axenic amastigotes at 0.25 uM incubated for 72 hrs by resazurin dye based colorimetric assay relative to control. Format: functional. In general terms: Alamar Blue is a resazurin reagent that responds to reducing activity.
Series [2] has as its system Leishmania martiniquensis. Kind of series: Potency index, ratio of IC50 for miltefosine to IC50 for test compound for antileishmanial activity against Leishmania martiniquensis MHOM/MQ/92/MAR promastigote incubated for 72 hrs by resazurin dye based colorimetric assay. Type of series: functional.
Series [3] concerns Leishmania martiniquensis. Briefly: Antileishmanial activity against Leishmania martiniquensis MHOM/MQ/92/MAR promastigote incubated for 72 hrs by resazurin dye based colorimetric assay. Type of series: functional, organism-based.
Series [4] concerns J774.A1. Briefly: Cytotoxicity against mouse J774A.1 cells assessed as reduction in cell viability at 0.25 uM incubated for 72 hrs by colorimetric assay relative to control. To be noted: j774.a1, 72 h. Format: cell-based.
For series [5], the system named is Leishmania orientalis. Kind of series: Antileishmanial activity against Leishmania orientalis MHOM/TH/2010/PCM2 promastigote at 0.1 uM incubated for 72 hrs by resazurin dye based colorimetric assay relative to control. Format: functional.
Series [6] concerns Leishmania martiniquensis. Briefly: Antileishmanial activity against Leishmania martiniquensis MHOM/MQ/92/MAR promastigote at 0.25 uM incubated for 72 hrs by resazurin dye based colorimetric assay relative to control. Type of series: functional.
Series [7] relates to J774.A1. Kind of series: Cytotoxicity against mouse J774A.1 cells assessed as reduction in cell viability at 4.0 uM incubated for 72 hrs by colorimetric assay relative to control. To be noted: j774.a1, 72 h. Type of series: cell-based.
The test system of series [8] is Leishmania orientalis. Briefly: Antileishmanial activity against Leishmania orientalis MHOM/TH/2010/PCM2 promastigote incubated for 72 hrs by resazurin dye based colorimetric assay. Type of series: functional, organism-based.
Series [9] has as its system Leishmania orientalis. Kind of series: Antileishmanial activity against Leishmania orientalis MHOM/TH/2010/PCM2 axenic amastigotes incubated for 72 hrs by resazurin dye based colorimetric assay. Format: functional, organism-based.
For series [10], the system named is Leishmania orientalis. Briefly: Antileishmanial activity against Leishmania orientalis MHOM/TH/2010/PCM2 promastigote at 0.25 uM incubated for 72 hrs by resazurin dye based colorimetric assay relative to control. Type of series: functional.
Series [11] deals with Leishmania martiniquensis. Kind of series: Antileishmanial activity against Leishmania martiniquensis MHOM/MQ/92/MAR promastigote at 0.1 uM incubated for 72 hrs by resazurin dye based colorimetric assay relative to control. Type of series: functional.

Usually IC50 stands for the concentration that gives 50% inhibition. A high value points to weaker potency in that assay. Turning to `CCn1c(=O)/c(=C/C=C2\Sc3ccccc3N2C)s/c1=C\c1sc2ccc(F)cc2[n+]1C.[Cl-]`, the “inhibition (INH)” value is 86.5% in series [1]; 66.2% in series [5]; 89.3% in series [6]; 91.7% in [10]; 82.8% in series [11]. Besides, the “Ratio IC50” value in [2] is reported as 200. Further, the IC50 in [3] was found to be 85 nM; in series [8], 104 nM; in series [9] it was 80 nM. Further, the Activity result is “Non-Toxic” in series [4] and 26.9% in [7].
